This is an account of results in patent US12187713B2, “Immunomodulators, compositions and methods thereof” (Betta Pharmaceuticals Co., Ltd, priority 2019, dated 2025).

PD-1/PD-L1, sequence (Q9NZQ7 19-238): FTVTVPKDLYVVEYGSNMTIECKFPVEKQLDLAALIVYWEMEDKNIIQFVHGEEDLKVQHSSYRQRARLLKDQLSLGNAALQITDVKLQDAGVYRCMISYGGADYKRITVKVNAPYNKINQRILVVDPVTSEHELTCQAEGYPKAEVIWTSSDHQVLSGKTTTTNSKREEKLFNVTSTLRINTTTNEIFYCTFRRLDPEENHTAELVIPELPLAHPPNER

The target in one test is PD-1/PD-L1 (Homo sapiens (Human), UniProt Q9NZQ7). As to the kind of experiment: PD-1/PD-L1 Binding Assay (Alphascreen). The conditions noted are these: numeric values. The method in brief:
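PD-1/PD-L1 binding detected by anti-6×His acceptor and streptavidin donor beads after 120 min in the dark at 25 °C. Beforehand, the two proteins were incubated 15 min at 25 °C with inhibitor at 0.015–300 nM (1% DMSO). IC50 comes from a log concentration–response curve.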
For orientation: Alpha assays give light when donor and acceptor beads are brought close together.
The compound `Cc1c(-c2nc3cc(CN4CC(C)(C)C4)c(OC(F)F)cc3o2)cccc1-c1cccc(-c2nc3cc(CN4CCC[C@H]4C(=O)O)c(OC(F)F)cc3o2)c1C#N` [Example 128, ((2-(2-cyano-3′-(6-(difluoromethoxy)-5-((3,3-dimethylazetidin-1-yl)methyl)benzo[d]oxazol-2-yl)-2′-methyl-[1,1′-biphenyl]-3-yl)-6-(difluoromethoxy)benzo[d]oxazol-5-yl)methyl)-L-proline] registered an IC50 of 0.14 nM.

`Cc1c(-c2nc3cc(CN4CCC[C@H]4C(=O)O)c(OC(F)F)cc3o2)cccc1-c1cccc(-c2nc3cc(CN4CC(C)(CO)C4)cc(C#N)c3o2)c1C` [Example 129, ((2-(3′-(7-cyano-5-((3-(hydroxymethyl)-3-methylazetidin-1-yl)methyl)benzo[d]oxazol-2-yl)-2,2′-dimethyl-[1,1′-biphenyl]-3-yl)-6-(difluoromethoxy)benzo[d]oxazol-5-yl)methyl)-L-proline]: the IC50 was determined as 1.7 nM.

`Cc1c(-c2nc3cc(CN4CCC[C@@H]4C(=O)O)c(OC(F)F)cc3o2)cccc1-c1cccc(-c2nc3cc(CN4CC[C@@H](C)C4)cc(C#N)c3o2)c1C` [Example 132, ((2-(3′-(7-cyano-5-(((R)-3-methylpyrrolidin-1-yl)methyl)benzo[d]oxazol-2-yl)-2,2′-dimethyl-[1,1′-biphenyl]-3-yl)-6-(difluoromethoxy)benzo[d]oxazol-5-yl)methyl)-D-proline] yielded an IC50 of 2 nM.

Still in this test, the particulars now being: range symbols.
For `Cc1c(-c2nc3cc(CN(C)C)c(OCc4cncc(S(C)(=O)=O)c4)cc3o2)cccc1-c1cccc(-c2nc3cc(CN4CCC[C@H]4C(=O)O)c(OC(F)F)cc3o2)c1C` [Example 123, ((6-(difluoromethoxy)-2-(3′-(5-((dimethylamino)methyl)-6-((5-(methylsulfonyl)pyridin-3-yl)methoxy)benzo[d]oxazol-2-yl)-2,2′-dimethyl-[1,1′-biphenyl]-3-yl)benzo[d]oxazol-5-yl)methyl)-L-proline], the IC50 is 0.1 to 5 nM.

In the case of `CNCc1cc2nc(-c3cccc(-c4cccc(-c5nc6cc(CN7CCC[C@H]7C(=O)O)c(OC(F)F)cc6o5)c4C)c3C)oc2cc1OCc1cccc(S(C)(=O)=O)c1` [Example 124, ((6-(difluoromethoxy)-2-(2,2′-dimethyl-3′-(5-((methylamino)methyl)-6-((3-(methylsulfonyl)benzyl)oxy)benzo[d]oxazol-2-yl)-[1,1′-biphenyl]-3-yl)benzo[d]oxazol-5-yl)methyl)-L-proline], the IC50 is 0.1 to 5 nM.

Consider `CNCc1cc2nc(-c3cccc(-c4cccc(-c5nc6cc(CN7CCC[C@H]7C(=O)O)c(OC(F)F)cc6o5)c4C)c3C)oc2cc1OCc1ccc(S(C)(=O)=O)cc1` [Example 125, ((6-(difluoromethoxy)-2-(2,2′-dimethyl-3′-(5-((methylamino)methyl)-6-((4-(methylsulfonyl)benzyl)oxy)benzo[d]oxazol-2-yl)-[1,1′-biphenyl]-3-yl)benzo[d]oxazol-5-yl)methyl)-L-proline], for which the IC50 fell in the range of 0.1 to 5 nM.

In turn, `Cc1c(-c2nc3cc(CN(C)C)c(OCc4ccc(S(C)(=O)=O)cc4)cc3o2)cccc1-c1cccc(-c2nc3cc(CN4CCC[C@H]4C(=O)O)c(OC(F)F)cc3o2)c1C` [Example 126, ((6-(difluoromethoxy)-2-(3′-(5-((dimethylamino)methyl)-6-((4-(methylsulfonyl)benzyl)oxy)benzo[d]oxazol-2-yl)-2,2′-dimethyl-[1,1′-biphenyl]-3-yl)benzo[d]oxazol-5-yl)methyl)-L-proline] returned an IC50 of 0.1 to 5 nM.

Regarding `Cc1c(-c2nc3cc(CN4CCC[C@H]4C(=O)O)c(OC(F)F)cc3o2)cccc1-c1cccc(-c2nc3cc(CN4CC[C@H](C)C4)cc(C#N)c3o2)c1C` [Example 130, ((2-(3′-(7-cyano-5-(((S)-3-methylpyrrolidin-1-yl)methyl)benzo[d]oxazol-2-yl)-2,2′-dimethyl-[1,1′-biphenyl]-3-yl)-6-(difluoromethoxy)benzo[d]oxazol-5-yl)methyl)-L-proline], the IC50 lay within 0.1 to 5 nM.

`Cc1c(-c2nc3cc(CN4CCC[C@H]4C(=O)O)c(OC(F)F)cc3o2)cccc1-c1cccc(-c2nc3cc(CNC4(C)COC4)cc(C#N)c3o2)c1C` [Example 133, ((2-(3′-(7-cyano-5-(((3-methyloxetan-3-yl)amino)methyl)benzo[d]oxazol-2-yl)-2,2′-dimethyl-[1,1′-biphenyl]-3-yl)-6-(difluoromethoxy)benzo[d]oxazol-5-yl)methyl)-L-proline] displayed an IC50 of 0.1 to 5 nM.

`Cc1c(-c2nc3cc(CN4CCC[C@H]4C(=O)O)c(OC(F)F)cc3o2)cccc1-c1cccc(-c2nc3cc(CN4CC(N(C)C)C4)cc(C#N)c3o2)c1C` [Example 134, ((2-(3′-(7-cyano-5-((3-(dimethylamino)azetidin-1-yl)methyl)benzo[d]oxazol-2-yl)-2,2′-dimethyl-[1,1′-biphenyl]-3-yl)-6-(difluoromethoxy)benzo[d]oxazol-5-yl)methyl)-L-proline]: the 50% inhibitory concentration (IC50) was in the range of 0.1 to 5 nM.

With `Cc1c(-c2nc3cc(CN4CCC[C@H]4C(=O)O)c(OC(F)F)cc3o2)cccc1-c1cccc(-c2nc3cc(CN4CCCCC4CCO)cc(C#N)c3o2)c1C` (stereo partly drawn) [Example 135, ((2-(3′-(7-cyano-5-((2-(2-hydroxyethyl)piperidin-1-yl)methyl)benzo[d]oxazol-2-yl)-2,2′-dimethyl-[1,1′-biphenyl]-3-yl)-6-(difluoromethoxy)benzo[d]oxazol-5-yl)methyl)-L-proline], the IC50 was 0.1 to 5 nM.

`Cc1c(-c2nc3cc(CN4CCC[C@H]4C(=O)O)c(OC(F)F)cc3o2)cccc1-c1cccc(-c2nc3cc(CN4CC(CO)C4)cc(C#N)c3o2)c1C` [Example 137, ((2-(3′-(7-cyano-5-((3-(hydroxymethyl)azetidin-1-yl)methyl)benzo[d]oxazol-2-yl)-2,2′-dimethyl-[1,1′-biphenyl]-3-yl)-6-(difluoromethoxy)benzo[d]oxazol-5-yl)methyl)-L-proline] registered an IC50 of 0.1 to 5 nM.

`Cc1c(-c2nc3cc(CN4CCC[C@H]4C(=O)O)c(OC(F)F)cc3o2)cccc1-c1cccc(-c2nc3cc(CNCC(C)(C)O)cc(C#N)c3o2)c1C` [Example 138, ((2-(3′-(7-cyano-5-(((2-hydroxy-2-methylpropyl)amino)methyl)benzo[d]oxazol-2-yl)-2,2′-dimethyl-[1,1′-biphenyl]-3-yl)-6-(difluoromethoxy)benzo[d]oxazol-5-yl)methyl)-L-proline] returned an IC50 of 0.1 to 5 nM.

The compound `Cc1c(-c2nc3cc(CN4CCC[C@H]4C(=O)O)c(OC(F)F)cc3o2)cccc1-c1cccc(-c2nc3cc(CNCC4CCC(=O)N4)cc(C#N)c3o2)c1C` (stereo partly drawn) [Example 139, ((2-(3′-(7-cyano-5-((((5-oxopyrrolidin-2-yl)methyl)amino)methyl)benzo[d]oxazol-2-yl)-2,2′-dimethyl-[1,1′-biphenyl]-3-yl)-6-(difluoromethoxy)benzo[d]oxazol-5-yl)methyl)-L-proline] gave an IC50 of 0.1 to 5 nM.

In the case of `Cc1c(-c2nc3cc(CN4CCC[C@@H]4C(=O)O)c(OC(F)F)cc3o2)cccc1-c1cccc(-c2nc3cc(CN4CC(C)(C)C4)cc(C#N)c3o2)c1C` [Example 140, ((2-(3′-(7-cyano-5-((3,3-dimethylazetidin-1-yl)methyl)benzo[d]oxazol-2-yl)-2,2′-dimethyl-[1,1′-biphenyl]-3-yl)-6-(difluoromethoxy)benzo[d]oxazol-5-yl)methyl)-D-proline], the IC50 lay in the range of 0.1 to 5 nM.

`CCN(CCO)Cc1cc(C#N)c2oc(-c3cccc(-c4cccc(-c5nc6cc(CN7CCC[C@H]7C(=O)O)c(OC(F)F)cc6o5)c4C)c3C)nc2c1` [Example 141, ((2-(3′-(7-cyano-5-((ethyl(2-hydroxyethyl)amino)methyl)benzo[d]oxazol-2-yl)-2,2′-dimethyl-[1,1′-biphenyl]-3-yl)-6-(difluoromethoxy)benzo[d]oxazol-5-yl)methyl)-L-proline]: the IC50 fell in the range of 0.1 to 5 nM.

On to `Cc1c(-c2nc3cc(CN4CCC[C@@H]4C(=O)O)c(OC(F)F)cc3o2)cccc1-c1cccc(-c2nc3cc(CN4CCC(C#N)C4)cc(C#N)c3o2)c1C` (stereo partly drawn) [Example 143, ((2-(3′-(7-cyano-5-((3-cyanopyrrolidin-1-yl)methyl)benzo[d]oxazol-2-yl)-2,2′-dimethyl-[1,1′-biphenyl]-3-yl)-6-(difluoromethoxy)benzo[d]oxazol-5-yl)methyl)-D-proline], for which the IC50 lay in the range of 0.1 to 5 nM.

In turn, `Cc1c(-c2nc3cc(CN4CCC[C@@H]4C(=O)O)c(OC(F)F)cc3o2)cccc1-c1cccc(-c2nc3cc(CN4CCCC4)cc(C#N)c3o2)c1C` [Example 145, ((2-(3′-(7-cyano-5-(pyrrolidin-1-ylmethyl)benzo[d]oxazol-2-yl)-2,2′-dimethyl-[1,1′-biphenyl]-3-yl)-6-(difluoromethoxy)benzo[d]oxazol-5-yl)methyl)-D-proline] displayed an IC50 of 0.1 to 5 nM.

With `Cc1c(-c2nc3cc(CN4CCC[C@H]4C(=O)O)c(OC(F)F)cc3o2)cccc1-c1cccc(-c2nc3cc(CN4CC5(CNC(=O)C5)C4)cc(C#N)c3o2)c1C` [Example 146, ((2-(3′-(7-cyano-5-((7-oxo-2,6-diazaspiro[3.4]octan-2-yl)methyl)benzo[d]oxazol-2-yl)-2,2′-dimethyl-[1,1′-biphenyl]-3-yl)-6-(difluoromethoxy)benzo[d]oxazol-5-yl)methyl)-L-proline], the IC50 was 0.1 to 5 nM.

Take `Cc1c(-c2nc3cc(CN4CCC[C@H]4C(=O)O)c(OC(F)F)cc3o2)cccc1-c1cccc(-c2nc3cc(CN(C(C)CO)C(C)CO)cc(C#N)c3o2)c1C` (stereo partly drawn) [Example 147, ((2-(3′-(5-((bis(1-hydroxypropan-2-yl)amino)methyl)-7-cyanobenzo[d]oxazol-2-yl)-2,2′-dimethyl-[1,1′-biphenyl]-3-yl)-6-(difluoromethoxy)benzo[d]oxazol-5-yl)methyl)-L-proline]: the IC50 is 0.1 to 5 nM.

The compound `Cc1c(-c2nc3cc(CN4CCC[C@H]4C(=O)O)c(OC(F)F)cc3o2)cccc1-c1cccc(-c2nc3cc(CN4CC(N5CCOCC5)C4)cc(C#N)c3o2)c1C` [Example 148, ((2-(3′-(7-cyano-5-((3-morpholinoazetidin-1-yl)methyl)benzo[d]oxazol-2-yl)-2,2′-dimethyl-[1,1′-biphenyl]-3-yl)-6-(difluoromethoxy)benzo[d]oxazol-5-yl)methyl)-L-proline] registered an IC50 of 5 to 50 nM.

The term IC50 denotes the midpoint of a concentration-inhibition curve.
